Assays:
Format in all cases: in vivo
[1] = tested on: Lolium perenne (LOLPE); assay: Glasshouse herbicide test, pre- and post-emergence, Lolium perenne; conditions: 250 g/h, evaluated after 13 days; for LOLPE POST, percentage damage caused to the plant (five point scale): post-emergence; for LOLPE PRE, percentage damage caused to the plant (five point scale): pre-emergence
Procedure: (§1) Seeds of a variety of test species are sown in standard soil in pots (Lolium perenne (LOLPE), Setaria faberi (SETFA), Alopecurus myosuroides (ALOMY), Echinochloa crus-galli (ECHCG), Avena fatua (AVEFA)). After cultivation for one day (pre-emergence) or after 8 days cultivation (post-emergence) under controlled conditions in a glasshouse (at 24/16° C., day/night; 14 hours light; 65% humidity), the plants are sprayed with an aqueous spray solution derived from the formulation of the technical active ingredient in acetone/water (50:50) solution containing 0.5% Tween 20 (polyoxyethelyene sorbitan monolaurate, CAS RN 9005-64-5). Compounds are applied at […]. The test plants are then grown in a glasshouse under controlled conditions in a glasshouse (at 24/16° C., day/night; 14 hours light; 65% humidity) and watered twice daily. After 13 days for pre and post-emergence, the test is evaluated for the percentage damage caused to the plant. The biological activities are shown in the following table on a five point scale (5=80-100%; 4=60-79%; 3=40-59%; 2=20-39%; 1=0-19%).

[2] = tested on: Setaria faberi (SETFA); assay: Glasshouse herbicide test, pre- and post-emergence, Setaria faberi; conditions: 250 g/h, evaluated after 13 days; for SETFA POST, percentage damage caused to the plant (five point scale): post-emergence; for SETFA PRE, percentage damage caused to the plant (five point scale): pre-emergence
Procedure: as §1

[3] = tested on: Alopecurus myosuroides (ALOMY); assay: Glasshouse herbicide test, pre- and post-emergence, Alopecurus myosuroides; conditions: 250 g/h, evaluated after 13 days; for ALOMY POST, percentage damage caused to the plant (five point scale): post-emergence; for ALOMY PRE, percentage damage caused to the plant (five point scale): pre-emergence
Procedure: as §1

[4] = tested on: Echinochloa crus-galli (ECHCG); assay: Glasshouse herbicide test, pre- and post-emergence, Echinochloa crus-galli; conditions: 250 g/h, evaluated after 13 days; for ECHCG POST, percentage damage caused to the plant (five point scale): post-emergence; for ECHCG PRE, percentage damage caused to the plant (five point scale): pre-emergence
Procedure: as §1

[5] = tested on: Avena fatua (AVEFA); assay: Glasshouse herbicide test, pre- and post-emergence, Avena fatua; conditions: 250 g/h, evaluated after 13 days; for AVEFA POST, percentage damage caused to the plant (five point scale): post-emergence; for AVEFA PRE, percentage damage caused to the plant (five point scale): pre-emergence
Procedure: as §1

Row | Compound | LOLPE POST, percentage damage caused to the plant (five point scale) [1] | LOLPE PRE, percentage damage caused to the plant (five point scale) [1] | SETFA POST, percentage damage caused to the plant (five point scale) [2] | SETFA PRE, percentage damage caused to the plant (five point scale) [2] | ALOMY POST, percentage damage caused to the plant (five point scale) [3] | ALOMY PRE, percentage damage caused to the plant (five point scale) [3] | ECHCG POST, percentage damage caused to the plant (five point scale) [4] | ECHCG PRE, percentage damage caused to the plant (five point scale) [4] | AVEFA POST, percentage damage caused to the plant (five point scale) [5] | AVEFA PRE, percentage damage caused to the plant (five point scale) [5]
1 | CC#Cc1ccc(C2C(=O)[C@@H]3[C@H](C2=O)[C@H]2C=C(C)[C@@H]3O2)c(OC)c1 (mixture of isomers) [Compound 1.16] | 5 (5=80-100%) | 5 (5=80-100%) | 5 (5=80-100%) | 5 (5=80-100%) | 5 (5=80-100%) | 5 (5=80-100%) | 5 (5=80-100%) | 5 (5=80-100%) | 5 (5=80-100%) | 5 (5=80-100%)
2 | CC#Cc1ccc(C2C(=O)[C@@H]3[C@H](C2=O)[C@@]2(C)CC[C@]3(C)O2)c(OC)c1 (some centres unmarked) [Compound 1.11] | 5 (5=80-100%) | 4 (4=60-79%) | 5 (5=80-100%) | 3 (3=40-59%) | 5 (5=80-100%) | 5 (5=80-100%) | 5 (5=80-100%) | 3 (3=40-59%) | 5 (5=80-100%) | 3 (3=40-59%)
3 | CC#Cc1ccc(C2C(=O)[C@H]3[C@@H]4CC[C@@](C)(O4)[C@H]3C2=O)c(OC)c1 (mixture of isomers) [Compound 1.5] | 5 (5=80-100%) | 5 (5=80-100%) | 5 (5=80-100%) | 5 (5=80-100%) | 5 (5=80-100%) | 5 (5=80-100%) | 5 (5=80-100%) | 5 (5=80-100%) | 5 (5=80-100%) | 5 (5=80-100%)
4 | CC#Cc1ccc(C2C(=O)[C@H]3[C@@H]4CC[C@@](COC)(O4)[C@H]3C2=O)c(OC)c1 (mixture of isomers) [Compound 1.12] | 5 (5=80-100%) | 5 (5=80-100%) | 5 (5=80-100%) | 5 (5=80-100%) | 5 (5=80-100%) | 5 (5=80-100%) | 5 (5=80-100%) | 5 (5=80-100%) | 5 (5=80-100%) | 5 (5=80-100%)
5 | CC#Cc1ccc(C2C(=O)[C@@H]3[C@@H]4O[C@@H](C[C@@H]4CO)[C@@H]3C2=O)c(OC)c1 (mixture of isomers) [Compound 1.14] | 4 (4=60-79%) | – | 5 (5=80-100%) | – | 3 (3=40-59%) | – | 5 (5=80-100%) | – | 5 (5=80-100%) | –
6 | CC#Cc1ccc(C2=C(OC(C)=O)[C@@H]3[C@H](C2=O)[C@@H]2O[C@H]3C[C@@H]2COC)c(OC)c1 (racemic) [Compound 1.29] | 5 (5=80-100%) | 5 (5=80-100%) | 5 (5=80-100%) | 5 (5=80-100%) | 5 (5=80-100%) | 5 (5=80-100%) | 5 (5=80-100%) | 5 (5=80-100%) | 5 (5=80-100%) | 5 (5=80-100%)
7 | CC#Cc1ccc(C2C(=O)[C@H]3[C@@H]4CC[C@@](C)(O4)[C@H]3C2=O)c(OC)c1 (some centres unmarked) [Compound 1.21] | 4 (4=60-79%) | 4 (4=60-79%) | 5 (5=80-100%) | 4 (4=60-79%) | 4 (4=60-79%) | 4 (4=60-79%) | 5 (5=80-100%) | 3 (3=40-59%) | 5 (5=80-100%) | 4 (4=60-79%)
8 | CC#Cc1ccc(C2C(=O)[C@@H]3[C@@H]4O[C@@H](C[C@H]4CC)[C@@H]3C2=O)c(OC)c1 (some centres unmarked) [Compound 1.24] | – | 5 (5=80-100%) | – | 5 (5=80-100%) | – | 5 (5=80-100%) | – | 5 (5=80-100%) | 5 (5=80-100%) | –
9 | CC#Cc1ccc(C2C(=O)[C@@H]3[C@H](C2=O)[C@@H]2O[C@H]3C[C@]2(C)OC)c(OC)c1 (mixture of isomers) [Compound 1.33] | 5 (5=80-100%) | 5 (5=80-100%) | 5 (5=80-100%) | 5 (5=80-100%) | 5 (5=80-100%) | 5 (5=80-100%) | 5 (5=80-100%) | 5 (5=80-100%) | 5 (5=80-100%) | 5 (5=80-100%)
10 | CC#Cc1ccc(C2C(=O)[C@@H]3[C@@H]4O[C@@H](C[C@H]4/C=N/OC)[C@@H]3C2=O)c(OC)c1 (mixture of isomers) [Compound 1.17] | 5 (5=80-100%) | 5 (5=80-100%) | 5 (5=80-100%) | 5 (5=80-100%) | 5 (5=80-100%) | 5 (5=80-100%) | 5 (5=80-100%) | 5 (5=80-100%) | 5 (5=80-100%) | 5 (5=80-100%)
11 | CC#Cc1ccc(C2=C(OC(=O)C(C)(C)C)[C@@H]3[C@H](C2=O)[C@@H]2O[C@H]3C[C@@H]2COC)c(OC)c1 (racemic) [Compound 1.26] | 5 (5=80-100%) | 5 (5=80-100%) | 5 (5=80-100%) | 5 (5=80-100%) | 5 (5=80-100%) | 5 (5=80-100%) | 5 (5=80-100%) | 5 (5=80-100%) | 5 (5=80-100%) | 5 (5=80-100%)
12 | CC#Cc1ccc(C2C(=O)[C@@H]3[C@H](C2=O)[C@H]2CC[C@@H]3O2)c(OCCC)c1 (mixture of isomers) [Compound 1.31] | 5 (5=80-100%) | 5 (5=80-100%) | 5 (5=80-100%) | 5 (5=80-100%) | 5 (5=80-100%) | 5 (5=80-100%) | 5 (5=80-100%) | 5 (5=80-100%) | 5 (5=80-100%) | 5 (5=80-100%)
13 | CC#Cc1ccc(C2C(=O)[C@@H]3[C@H](C2=O)[C@H]2CC[C@@H]3O2)c(OCC)c1 (mixture of isomers) [Compound 1.30] | 5 (5=80-100%) | 5 (5=80-100%) | – | 5 (5=80-100%) | 5 (5=80-100%) | 5 (5=80-100%) | 5 (5=80-100%) | 5 (5=80-100%) | 5 (5=80-100%) | 5 (5=80-100%)
